Data as given in ChEMBL document CHEMBL1201862, “PubChem BioAssay data set” (2004).
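Method: 48-hour compound exposure of cells in 96-well plates, five concentrations, linear interpolation of endpoints. GI50: concentration for 50% inhibition of growth.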 The source made the active and inactive calls. Rule as the data show it: active = GI50 up to about 1.1 µM and inactive = higher.

Assays:
Assay in all cases: NCI anticancer screen, dose series, 48 h
M14 = test system: M14
IGROV-1 = test system: IGROV-1
OVCAR-5 = test system: OVCAR-5
CCRF-CEM = test system: CCRF-CEM
NCI-H460 = test system: NCI-H460
RPMI-8226 = test system: RPMI-8226
SK-MEL-5 = test system: SK-MEL-5
SNB-19 = test system: SNB-19
KM12 = test system: KM12
U-251 = test system: U-251
T47D = test system: T47D
HT-29 = test system: HT-29
Malme-3M = test system: Malme-3M
DU-145 = test system: DU-145
PC-3 = test system: PC-3
OVCAR-4 = test system: OVCAR-4
OVCAR-8 = test system: OVCAR-8
OVCAR-3 = test system: OVCAR-3
SW-620 = test system: SW-620

| SMILES | GI50 (M14) | GI50 (IGROV-1) | GI50 (OVCAR-5) | GI50 (CCRF-CEM) | GI50 (NCI-H460) | GI50 (RPMI-8226) | GI50 (SK-MEL-5) | GI50 (SNB-19) | GI50 (KM12) | GI50 (U-251) | GI50 (T47D) | GI50 (HT-29) | GI50 (Malme-3M) | GI50 (DU-145) | GI50 (PC-3) | GI50 (OVCAR-4) | GI50 (OVCAR-8) | GI50 (OVCAR-3) | GI50 (SW-620) |
| --- | --- | --- | --- | --- | --- | --- | --- | --- | --- | --- | --- | --- | --- | --- | --- | --- | --- | --- | --- |
| Cn1c2ccccc2n2c3ncccc3/c(=N/CCCC(=O)O)c(C#N)c12 | > 100 µM (inactive) | > 100 µM (inactive) | > 100 µM (inactive) | > 100 µM (inactive) | > 100 µM (inactive) | > 100 µM (inactive) | > 100 µM (inactive) | > 100 µM (inactive) | > 100 µM (inactive) | > 100 µM (inactive) | > 100 µM (inactive) | > 100 µM (inactive) | > 100 µM (inactive) | > 100 µM (inactive) | > 100 µM (inactive) | > 100 µM (inactive) | > 100 µM (inactive) | > 100 µM (inactive) | > 100 µM (inactive) |
| Cc1cc(O)c(C(c2ccncc2)c2c(O)cc(C)[nH]c2=O)c(=O)[nH]1 | > 100 µM (inactive) | > 100 µM (inactive) | > 100 µM (inactive) | > 100 µM (inactive) | > 100 µM (inactive) | > 100 µM (inactive) | > 100 µM (inactive) | > 100 µM (inactive) | > 100 µM (inactive) | > 100 µM (inactive) | > 100 µM (inactive) | > 100 µM (inactive) | > 100 µM (inactive) | > 100 µM (inactive) | > 100 µM (inactive) | > 100 µM (inactive) | > 100 µM (inactive) | > 100 µM (inactive) | – |
| NC(CCCCNC(=O)CNC(=O)OCc1ccccc1)C(=O)NC(CCCCNC(=O)CNC(=O)OCc1ccccc1)C(=O)NC(CCCCNC(=O)CNC(=O)OCc1ccccc1)C(=O)NC(CCCCNC(=O)CNC(=O)OCc1ccccc1)C(=O)NC(CCCCNC(=O)CNC(=O)OCc1ccccc1)C(=O)NC(CCCCNC(=O)CNC(=O)OCc1ccccc1)C(=O)O (stereo not given) | > 75 µM (inactive) | > 75 µM (inactive) | > 75 µM (inactive) | > 75 µM (inactive) | > 75 µM (inactive) | > 75 µM (inactive) | > 75 µM (inactive) | > 75 µM (inactive) | – | > 75 µM (inactive) | > 75 µM (inactive) | > 75 µM (inactive) | > 75 µM (inactive) | > 75 µM (inactive) | > 75 µM (inactive) | > 75 µM (inactive) | > 75 µM (inactive) | > 75 µM (inactive) | > 75 µM (inactive) |
| COc1cc2cc(C(=O)N3CC(CCl)c4c3cc(O)c3ccccc43)[nH]c2c(OC)c1OC (stereo not given) | < 0.005 µM (active) | – | < 0.005 µM (active) | < 0.005 µM (active) | < 0.005 µM (active) | < 0.005 µM (active) | < 0.005 µM (active) | < 0.005 µM (active) | < 0.005 µM (active) | < 0.005 µM (active) | < 0.005 µM (active) | < 0.005 µM (active) | < 0.005 µM (active) | < 0.005 µM (active) | < 0.005 µM (active) | < 0.005 µM (active) | < 0.005 µM (active) | < 0.005 µM (active) | < 0.005 µM (active) |
| O=C(O)CCC(/N=C(\C(=N\C(CCC(=O)O)C(=O)O)c1ccccc1)c1ccccc1)C(=O)O (stereo not given) | > 100 µM (inactive) | – | > 100 µM (inactive) | – | > 100 µM (inactive) | > 100 µM (inactive) | – | > 100 µM (inactive) | > 100 µM (inactive) | > 100 µM (inactive) | > 100 µM (inactive) | – | – | > 100 µM (inactive) | > 100 µM (inactive) | > 100 µM (inactive) | > 100 µM (inactive) | > 100 µM (inactive) | > 100 µM (inactive) |
| C1=CC2(C=CC13O[C@H](C1CCCCC1)[C@@H](C1CCCCC1)O3)O[C@H](C1CCCCC1)[C@@H](C1CCCCC1)O2 | > 50 µM (inactive) | > 50 µM (inactive) | > 50 µM (inactive) | – | > 50 µM (inactive) | 23.2 µM (inactive) | > 50 µM (inactive) | > 50 µM (inactive) | > 50 µM (inactive) | > 50 µM (inactive) | > 50 µM (inactive) | > 50 µM (inactive) | > 50 µM (inactive) | > 50 µM (inactive) | > 50 µM (inactive) | > 50 µM (inactive) | > 50 µM (inactive) | > 50 µM (inactive) | > 50 µM (inactive) |
